Patent US10167285B2, “Small-molecule HSP90 inhibitors” (Memorial Sloan Kettering Cancer Center, priority 2005, dated 2019)
Where “and” joins values, the source holds several entries; their conditions need not be identical. Equal entries are not always repeated. Where two headings read alike, the source gives them in different places.

Tests used:
recombinant Hsp90α = recombinant Hsp90α (Homo sapiens (Human), UniProt P07900); test: Hsp90 competition assay (fluorescence polarization), recombinant protein; assay type: binding; conditions: average of 3 measurements, displacement of fluorescent GM
Description: Hsp90 competition assay. Fluorescence polarization measurements were performed on an Analyst AD instrument (Molecular Devices, Sunnyvale, Calif.). […] The assay buffer (HFB) contained 20 mM HEPES (K) pH 7.3, 50 mM KCl, 5 mM MgCl2, 20 mM Na2MoO4, 0.01% NP40. Before each use, 0.1 mg/mL bovine gamma globulin (BGG) (Panvera Corporation, Madison, Wis.) and 2 mM DTT (Fisher Biotech, Fair Lawn, N.J.) were freshly added. GM-BODIPY was synthesized as previously reported^23a and was dissolved in DMSO to form 10 μM solutions.

Her2 = Her2 assay (microtiter immunoassay of Her2 degradation); assay type: cell-based, human
Description: Her2 assay. SKBr3 cells were plated in black, clear-bottom microtiter plates (Corning #3603) at 3,000 cells/well in growth medium (100 μl) and allowed to attach for 24 h at 37° C. and 5% CO2. Growth medium (100 μl) with drug or vehicle (DMSO) was carefully added to the wells, and the plates were placed at 37° C. and 5% CO2. Following 24 h incubation with drugs, wells were washed with ice-cold Tris buffer saline (TBS) containing 0.1% Tween 20 (TBST) (200 μl). A house vacuum source attached to an eight-channel aspirator was used to remove the liquid from the plates. Further, methanol (100 μl at −20° C.) was added to each well, and the plate was placed at 4° C. for 10 min. Methanol was removed by washing with TBST (2×200 μl). After further incubation at RT for 2 h with SuperBlockR (Pierce 37535) (200 μl), anti-Her-2 (c-erbB-2) antibody (Zymed Laboratories #28-004) (100 μl, 1:200 in SuperBlockR) was placed in each well. The plate was incubated overnight at 4° C. For control wells, 1:200 dilution of a normal rabbit IgG (Santa Cruz #SC-2027) in SuperblockR was used. Each well was washed with TBST (2×200 μl) and incubated at RT for 2 h with an anti-rabbit HRP-linked antibody (Sigma, A-0545) (100 μl, 1:2000 in SuperBlockR). Unreacted antibody was removed by washing with TBST (3×200 μl), and the ECLTM Western blotting reagent (Amersham #RPN2106) (100 μL) was added. The plate was immediately read in an Analyst AD plate reader (Molecular Devices). Each well was scanned for 0.1 s. Readings from wells containing only control IgG and the corresponding HRP-linked secondary antibody were set as background and deducted from all measured values.

MDA-MB-468 cells = test: Anti-mitotic assay (Tg-3 microtiter immunoassay); assay type: cell-based, human; conditions: 24 h, concentration dependent increase in Tg-3 luminescence
Description: Anti-mitotic assay. Black, clear-bottom microtiter 96-well plates (Corning Costar #3603) were used to accommodate experimental cultures. MDA-MB-468 cells were seeded in each well at 8,000 cells per well in growth medium (100 μL), and allowed to attach overnight at 37° C. and 5% CO2. Growth medium (100 μL) with drug or vehicle (DMSO) was gently added to the wells, and the plates were incubated at 37° C. and 5% CO2 for 24 h. Wells were washed with ice-cold TBST (2×200 μL). A house vacuum source attached to an eight-channel aspirator was used to remove the liquid from the 96-well plates. Ice-cold methanol (100 μL) was added to each well, and the plate was placed at 4° C. for 5 min. Methanol was removed by suction and plates were washed with ice-cold TBST (2×200 μL). Plates were further incubated with SuperBlock® blocking buffer (Pierce #37535) (200 μL) for 2 h at RT. The Tg-3 antibody (gift of Dr. Davies, Albert Einstein College of Medicine) diluted 1:200 in SuperBlock® was placed in each well (100 μL) except the control column that was treated with control antibody (Mouse IgM, NeoMarkers, NC-1030-P). After 72 h, wells were washed with ice-cold TBST (2×200 μL). […] Un-reacted antibody was removed by washing the plates with ice-cold TBST (3×200 μL) for 5 min on a shaker. The ECLTM Western Blotting Detection Reagents 1 and 2 in 1:1 mix (100 μL) was placed in each well and the plates were read immediately in an Analyst AD plate reader (Molecular Devices). Luminescence readings were imported into SOFTmax PROR 4.3.1. Anti-mitotic activity was defined as a concentration dependent increase in luminescence readings in compound-treated wells as compared to DMSO only treated wells.

Hsp90 Brain = test: Hsp90 competition assay, brain homogenate; assay type: binding, mouse; conditions: for EC50: normal tissue; for Brain/SKBr3: ratio of EC50 Hsp90 values
Description: (§5) Hsp90 competition assay. Fluorescence polarization measurements were performed on an Analyst AD instrument (Molecular Devices, Sunnyvale, Calif.). […] The assay buffer (HFB) contained 20 mM HEPES (K) pH 7.3, 50 mM KCl, 5 mM MgCl2, 20 mM Na2MoO4, 0.01% NP40. Before each use, 0.1 mg/mL bovine gamma globulin (BGG) (Panvera Corporation, Madison, Wis.) and 2 mM DTT (Fisher Biotech, Fair Lawn, N.J.) were freshly added. […] Cell lysates were prepared rupturing cellular membranes by freezing at −70° C. and dissolving the cellular extract in HFB with added protease and phosphotase inhibitors. Organs were harvested from a healthy mouse and homogenized in HFB. Saturation curves were recorded in which GM-BODIPY (5 nM) was treated with increasing amounts of cellular lysates.

[1] = tested on: renal proximal tubular epithelial cells (RPTEC); test: Growth inhibition of normal RPTEC cells; assay type: cell-based, human; conditions: for IC50: 72 h, read-out: IC50 RPTEC
Description: (§1) Cell culture. The human breast cancer cell lines SKBr3 and MDA-MB-468 were a gift from Dr. Neal Rosen (MSKCC). Cells were maintained in 1:1 mixture of DME:F12 supplemented with 2 mM glutamine, 50 units/mL penicillin, 50 […] and 10% heat inactivated fetal bovine serum (Gemini Bioproducts #100-10b) and incubated at 37° C., 5% CO2. Growth assays. Growth inhibition studies were performed using the sulforhodamine B assay as previously described.^29 In summary, experimental cultures were plated in microtiter plates (Nunc #167008). One column of wells was left without cells to serve as the blank control. Cells were allowed to attach overnight. The following day, growth medium having either drug or DMSO at twice the desired initial concentration was added to the plate in triplicate and was serially diluted at a 1:1 ratio in the microtiter plate. After 72 h of growth, the cell number in treated versus control wells was estimated after treatment with 50% trichloroacetic acid and staining with 0.4% sulforhodamine B in 1% acetic acid. […] Normal human renal proximal tubular epithelial (RPTEC) cells were purchased pre-seeded in 96-well plates (Clonetics, CC-3190). Upon receipt, cells were placed in a humidified incubator at 37° C., 5% CO2 and allowed to equilibrate for 3 h. Media was removed by suction and replaced with fresh media provided by the manufacturer. Cells were then treated with either drugs or DMSO for 72 h and the IC50 values were determined as described above.

SCLC cell lines = test: Cell death and apoptosis across the SCLC cell lines; assay type: cell-based; conditions: each of the SCLC cell lines, FIGS. 6A and B
Hsp90 lung = test: Hsp90 competition assay, lung homogenate; conditions: for Lung/SKBr3: ratio of EC50 Hsp90 values; for EC50: read-out: EC50 Hsp90 lung, normal tissue
Description: as §5

Hsp90 heart = test: Hsp90 competition assay, heart homogenate; conditions: for Heart/SKBr3: ratio of EC50 Hsp90 values; for EC50: read-out: EC50 Hsp90 heart, normal tissue
Description: as §5

Hsp90 SKBr3 = test: Hsp90 competition assay, SKBr3 cell lysate; conditions: read-out: EC50 Hsp90 SKBr3
Description: Hsp90 competition assay. Fluorescence polarization measurements were performed on an Analyst AD instrument (Molecular Devices, Sunnyvale, Calif.). […] The assay buffer (HFB) contained 20 mM HEPES (K) pH 7.3, 50 mM KCl, 5 mM MgCl2, 20 mM Na2MoO4, 0.01% NP40. Before each use, 0.1 mg/mL bovine gamma globulin (BGG) (Panvera Corporation, Madison, Wis.) and 2 mM DTT (Fisher Biotech, Fair Lawn, N.J.) were freshly added. GM-BODIPY was synthesized as previously reported^23a and was dissolved in DMSO to form 10 μM solutions. Recombinant Hsp90α was purchased from Stressgen Bioreagents (cat. No. SPP-776), (Victoria, Canada). Cell lysates were prepared rupturing cellular membranes by freezing at −70° C. and dissolving the cellular extract in HFB with added protease and phosphotase inhibitors. […] Saturation curves were recorded in which GM-BODIPY (5 nM) was treated with increasing amounts of cellular lysates.

[2] = tested on: SKBr3 breast cancer cells; test: Growth inhibition, sulforhodamine B assay; assay type: cell-based, human; conditions: Homo sapiens, SK-BR-3, 72 h, average of 3 measurements
Description: as §1

[3] = Tumor and plasma concentration in MDA-MB-468 xenografted mice; assay type: in vivo; conditions: 24 hours after intraperitoneal injection
Description: (§2) Mice xenografted with MDA-MB-468 human breast cancer tumors were treated by intraperitoneal injection with Compound 5 at a dosage levels of 25, 50, 75, 100 and 150 mg/kg. The concentration of Compound 5 in the tumor 24 hours after administration was determined. […] Compound 5 was further tested for its effects on the pharmacodynamic marker Raf-1 kinase. Hsp90 stabilizes this kinase and maintains it in ready-to-be-activated conformation. Inhibition of Hsp90 leads to disruption of the complex and further ubiquitinylation and degradation of Raf-1 by the proteasome. Thus, Raf-1 degradation in tumors is a functional read-out of Hsp90 inhibition.

Raf-1 kinase = test: Raf-1 protein levels in MDA-MB-468 tumors; assay type: in vivo, mice; conditions: all dosage levels, FIG. 10B
Description: as §2

PI3 kinase = PI3 kinase expression in MDA-MB-468 tumors; assay type: in vivo, mice; conditions: protein unaffected by Hsp90 inhibitors
Solubility in PBS = assay type: physicochemical; conditions: aqueous buffer, acid addition salt form
Description: (§3) Growth over 96 h was assessed.

H69AR = test: Growth over 96 h in adriamycin-resistant SCLC cells; assay type: cell-based; conditions: resistant to adriamycin
Description: as §3

SKI-Chen = test: Growth over 96 h in therapy-resistant SCLC cells; assay type: cell-based; conditions: from a patient who failed every conventional therapy
Description: as §3

[4] = tested on: Hsp90 client proteins (Raf-1, Akt), PARP cleavage; test: Pharmacodynamics in small cell lung tumors; assay type: in vivo
small cell lung tumors = test: Tumor growth inhibition in small cell lung cancer model; assay type: in vivo
U251 glioma cells = test: Clonogenic survival assay, radiosensitization; assay type: cell-based, human
Description: (§4) Colony forming efficiency was determined 10-12 days later and survival curves generated after normalizing for cell killing by Compound 9 alone. The results are summarized in FIG. 11A (Compound 9) and B (Compound 8).

U87 glioma cells = test: Clonogenic survival assay, radiosensitization; assay type: cell-based, human
Description: as §4

[5] = Blood brain barrier penetration
[6] = Plasma and tumor levels in small cell lung cancer model; conditions: tumor

Row | Molecule | Anti-mitotic (MDA-MB-468 cells) | EC50 (Hsp90 Brain) | Brain/SKBr3 (Hsp90 Brain) | Lung/SKBr3 (Hsp90 lung) | EC50 (Hsp90 lung) | Heart/SKBr3 (Hsp90 heart) | EC50 (Hsp90 heart) | EC50 (Hsp90 SKBr3) | IC50 [2] | solubility (Solubility in PBS) | further results
1 | C#CCCCn1c(Sc2cc3c(cc2Br)OCO3)nc2c(N)ncnc21 [Example 1, 9-(Pent-4-ynyl)-8-(6-bromo-benzo[1,3]dioxol-5-ylsulfanyl)adenine] | Yes | 40200 ± 25300 nM | 2000 | 735 | 14700 ± 1700 nM | 3265 | 65300 ± 9900 nM | 20 ± 60 nM |  |  | EC50 (recombinant Hsp90α; EC50 Hsp90-α): 30 nM and 50.8 nM; IC50 (Her2; Her2 degradation in SKBr3 cells, 24 h; average of 3 measurements): 365 ± 45 nM; IC50 (Her2; Homo sapiens, SK-BR-3, 24 h, Her2 degradation in SKBr3 cells, average of 3 measurements): 300 ± 50 nM; IC50 ([1]; Homo sapiens, RPTEC): 4100 ± 900 nM; induction of apoptosis (SCLC cell lines): induced apoptosis
2 | 9-(Pent-4-ynyl)-8-(2,4,5-trichloro-phenylsulfanyl)adenine [Example 2] |  | 26700 ± 7700 nM | 298 |  |  |  |  | 90 ± 30 nM |  |  | IC50 ([1]; normal cells): 28100 ± 2200 nM; RPTEC/SKBr3 ([1]; ratio of growth IC50 values): 15.6
3 | CC(C)NCCCn1c(Sc2cc3c(cc2Br)OCO3)nc2c(N)ncnc21 [Example 5, 8-(6-Bromo-benzo[1,3]dioxol-5-ylsulfanyl)-9-(3-isopropylamino-propyl)adenine] | Yes |  |  |  |  |  |  |  | 142 ± 22 nM |  | detection in plasma [3]: could not be detected; Raf-1 levels (% control) (Raf-1 kinase): substantial decrease; expression of PI3 kinase (PI3 kinase): no change in expression
4 | CC(C)NCCCn1c(Cc2cc3c(cc2I)OCO3)nc2c(N)nc(F)nc21 [Example 8, 2-Fluoro-8-(6-iodo-benzo[1,3]dioxol-5-ylmethyl)-9-(3-isopropylamino-propyl) adenine] | Yes |  |  |  |  |  |  |  | 45 ± 6 nM | > 5 mM | EC50 (recombinant Hsp90α; read-out: EC50 Hsp90-α): 50.4 ± 4 nM; IC50 (Her2; Homo sapiens, SK-BR-3; Her2 degradation in SKBr3 cells, 24 h; average of 3 measurements): 80 ± 10 nM
5 | CC(C)NCCCn1c(Sc2cc3c(cc2I)OCO3)nc2c(N)ncnc21 [Example 9, 8-(6-Iodo-benzo[1,3]dioxol-5-ylsulfanyl)-9-(3-isopropylamino-propyl)adenine] | Yes |  |  | 48 | 2400 ± 240 nM | 140 | 6900 ± 150 nM | 50.4 ± 4 nM | 50 ± 5 nM | > 5 mM | activity in resistant SCLC cell line (H69AR): retains its activity; activity in resistant SCLC cell line (SKI-Chen): retains its activity; apoptosis of the tumor (PARP cleavage) ([4]; FIG. 9C): induces significant apoptosis; Raf-1 and Akt in tumor ([4]; one administered dose): efficiently degraded or inactivated; tumor growth (small cell lung tumors; comparable to 17AAG, FIG. 9D): efficiently inhibited the growth; toxicity to the host (small cell lung tumors; in vivo): without toxicity; surviving fraction after compound treatment only (U251 glioma cells; U251 cells): 0.86; dose enhancement factors (U251 glioma cells; range across U251 and U87, 16 h exposure before X rays): 1.4-1.6; surviving fraction after compound treatment only (U87 glioma cells): 0.68; crossing of the blood brain barrier [5]: ability to cross the blood brain barrier; retention in tumors at pharmacologic doses [6]: more than 36 h
